Measured values: patent US20240279220A1, “INDOLE COMPOUNDS AND METHODS OF USE” (Genzyme Corporation, priority 2021, published 2024)

Test system: NBD1/3D
Test: Aggregation analysis using differential static light scattering (DSLS), NBD1 thermal stability
Format: binding, Human
Details: ΔTagg versus DMSO control; compound at 100 μM
Method in brief: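 Purified NBD1 at 0.2 mg/ml in S200 buffer (pH 7.6, 2 mM ATP, 5 mM MgCl2, 1% glycerol) was heated with compound at 1 °C/min to 70 °C. Tagg taken from the light-scattering curve inflection point; ΔTagg = compound Tagg minus mean DMSO control Tagg.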

| SMILES | DSLS NBD1/3D Human Stability delta-T (° C.) @ 100 (μM) |
| --- | --- |
| CC(O)(c1cccc(CCC(=O)O)c1)c1cnc(-c2cc(Oc3c(F)c(F)c4[nH]ccc4c3C3CC3)ccc2F)[nH]1 (centres unmarked) [Example 205, 3-(3-(1-(2-(5-((4-cyclopropyl-6,7-difluoro-1H-indol-5-yl)oxy)-2-fluorophenyl)-1H-imidazol-5-yl)-1-hydroxyethyl)phenyl) propanoic acid] | B (B: 5-10° C.) |
| O=C(O)CCc1cccc(C2(c3cnc(-c4cc(Oc5nc6cc[nH]c6cc5F)ccc4F)[nH]3)CC(F)(F)C2)c1 [Example 165, 3-(3-(3,3-difluoro-1-(2-(2-fluoro-5-((6-fluoro-1H-pyrrolo[3,2-b]pyridin-5-yl)oxy)phenyl)-1H-imidazol-5-yl)cyclobutyl)phenyl)propanoic acid] | B (B: 5-10° C.) |
| C=Cc1c(Oc2cccc(-c3ncc(C(O)c4cccc(CCC(=O)O)c4)[nH]3)c2)ccc2[nH]ccc12 (centres unmarked) [Example 174, 3-(3-(hydroxy(2-(3-((4-vinyl-1H-indol-5-yl)oxy)phenyl)-1H-imidazol-5-yl)methyl)phenyl)propanoic acid] | B (B: 5-10° C.) |
| O=C(O)CCc1ccc(F)c(Cc2cnc(-c3cc(Oc4c(F)cc5[nH]ccc5c4F)ccc3F)[nH]2)c1 [Example 103, 3-(3-((2-(5-((4,6-difluoro-1H-indol-5-yl)oxy)-2-fluorophenyl)-1H-imidazol-5-yl)methyl)-4-fluorophenyl)propanoic acid] | B (B: 5-10° C.) |
| Cc1c(Oc2ccc(F)c(-c3ncc(C(C)(O)c4cccc(CCC(=O)O)c4)[nH]3)c2)cc(F)c2[nH]ccc12 (centres unmarked) [Example 195, 3-(3-(1-(2-(2-fluoro-5-((7-fluoro-4-methyl-1H-indol-5-yl)oxy)phenyl)-1H-imidazol-5-yl)-1-hydroxyethyl)phenyl) propanoic acid] | B (B: 5-10° C.) |
| CC(O)(c1cccc(CCC(=O)O)c1)c1c[nH]c(-c2cc(Oc3c(F)cc4[nH]ccc4c3CC(F)F)ccc2F)n1 (centres unmarked) [Example 188, 3-(3-(1-(2-(5-((4-(2,2-difluoroethyl)-6-fluoro-1H-indol-5-yl)oxy)-2-fluorophenyl)-1H-imidazol-4-yl)-1-hydroxyethyl)phenyl) propanoic acid] | B (B: 5-10° C.) |
| Cc1c(Oc2ccc(F)c(-c3ncc(C(C)(C#N)c4cccc(CCC(=O)O)c4)[nH]3)c2)c(F)c(F)c2[nH]cc(Cl)c12 (centres unmarked) [Example 57, 3-(3-(1-(2-(5-((3-chloro-6,7-difluoro-4-methyl-1H-indol-5-yl)oxy)-2-fluorophenyl)-1H-imidazol-5-yl)-1-cyanoethyl)phenyl)propanoic acid] | B (B: 5-10° C.) |
| CC(O)(c1cccc(CCC(=O)O)c1)c1cnc(-c2cc(Oc3c(F)cc4[nH]ccc4c3CCF)ccc2F)[nH]1 (centres unmarked) [Example 200, 3-(3-(1-(2-(2-fluoro-5-((6-fluoro-4-(2-fluoroethyl)-1H-indol-5-yl)oxy)phenyl)-1H-imidazol-5-yl)-1-hydroxyethyl)phenyl) propanoic acid] | A (A: T ≥ 10° C.) |
| O=C(O)CCc1cccc(C2(c3cnc(-c4cc(Oc5ccc6scnc6c5)ccc4F)[nH]3)CCOCC2)c1 [Example 166, 3-(3-(4-(2-(5-(Benzo[d]thiazol-5-yloxy)-2-fluorophenyl)-1H-imidazol-5-yl)tetrahydro-2H-pyran-4-yl)phenyl)propanoic acid] | C (C: ≤5° C.) |
| O=P(O)(O)OCCCc1cccc(Cc2cnc(-c3cc(Oc4c(F)cc5[nH]ccc5c4F)ccc3F)[nH]2)c1F [Example 269, 3-(3-((2-(5-((4,6-Difluoro-1H-indol-5-yl)oxy)-2-fluorophenyl)-1H-imidazol-5-yl)methyl)-2-fluorophenyl)propyl dihydrogen phosphate] | C (C: ≤5° C.) |
| O=C(O)CCc1cccc(Cc2csc(-c3cccc(Oc4ccc5[nH]ccc5c4CO)c3)n2)c1 [Example 99, 3-(3-((2-(3-((4-(Hydroxymethyl)-1H-indol-5-yl)oxy)phenyl)thiazol-4-yl)methyl)phenyl)propanoic acid] | B (B: 5-10° C.) |
| CC(CO)(c1cccc(CCC(=O)O)c1)c1cnc(-c2cc(Oc3c(F)cc4[nH]ccc4c3S(C)(=O)=O)ccc2F)[nH]1 (centres unmarked) [Example 68, 3-(3-(2-(2-(2-Fluoro-5-((6-fluoro-4-(methylsulfonyl)-1H-indol-5-yl)oxy)phenyl)-1H-imidazol-5-yl)-1-hydroxypropan-2-yl)phenyl)propanoic acid] | A (A: T ≥ 10° C.) |
| O=C(O)CCc1cccc(Cc2cnc(-c3cc(Oc4c(F)cc5[nH]ccc5c4CNCC(F)(F)F)ccc3F)[nH]2)c1 [Example 265, 3-(3-((2-(2-Fluoro-5-((6-fluoro-4-(((2,2,2-trifluoroethyl)amino)methyl)-1H-indol-5-yl)oxy)phenyl)-1H-imidazol-5-yl)methyl)phenyl)propanoic acid] | B (B: 5-10° C.) |
| CC(=O)NCc1c(Oc2cccc(-c3ncc(C(O)c4cccc(CCC(=O)O)c4)[nH]3)c2)ccc2[nH]ccc12 (centres unmarked) [Example 262, 3-(3-((2-(3-((4-(Acetamidomethyl)-1H-indol-5-yl)oxy)phenyl)-1H-imidazol-5-yl)(hydroxy)methyl)phenyl)propanoic acid] | A (A: T ≥ 10° C.) |
| Cc1c(Oc2ccc(F)c(-c3ncc(C(C)c4cccc([C@@H]5C[C@H]5C(=O)O)c4F)[nH]3)c2)c(F)cc2[nH]ccc12 (relative stereo) [Example 139E, trans-2-(2-fluoro-3-(1-(2-(2-fluoro-5-((6-fluoro-4-methyl-1H-indol-5-yl)oxy)phenyl)-1H-imidazol-5-yl)ethyl)phenyl)cyclopropane-1-carboxylic acid] | B (B: 5-10° C.) |
| CC1CC(c2cccc(CCC(=O)O)c2)(c2cnc(-c3cc(Oc4c(F)cc5[nH]ccc5c4F)ccc3F)[nH]2)CC(C)O1 (centres unmarked) [Example 142, 3-(3-(4-(2-(5-((4,6-Difluoro-1H-indol-5-yl)oxy)-2-fluorophenyl)-1H-imidazol-5-yl)-2,6-dimethyltetrahydro-2H-pyran-4-yl)phenyl)propanoic acid] | A (A: T ≥ 10° C.) |
| CS(=O)(=O)c1c(Oc2cccc(-c3nc(Cc4cccc(CCC(=O)O)c4)cs3)c2)c(F)cc2[nH]ccc12 [Example 35, 3-(3-((2-(3-((6-Fluoro-4-(methylsulfonyl)-1H-indol-5-yl)oxy)phenyl)thiazol-4-yl)methyl)phenyl)propanoic acid] | B (B: 5-10° C.) |
| CC(c1cnc(-c2cc(Oc3c(F)cc4[nH]ccc4c3CC(F)(F)F)ccc2F)[nH]1)c1cccc(CCC(=O)O)c1F (single isomer, unassigned) [Example 128A, 3-(2-fluoro-3-(1-(2-(2-fluoro-5-((6-fluoro-4-(2,2,2-trifluoroethyl)-1H-indol-5-yl)oxy)phenyl)-1H-imidazol-5-yl)ethyl)phenyl)propanoic acid] | B (B: 5-10° C.) |
| CO[C@]1(C)C[C@](c2cc(F)cc(CCC(=O)O)c2)(c2cnc(-c3cc(Oc4c(F)cc5[nH]ccc5c4S(C)(=O)=O)ccc3F)[nH]2)C1 [Example 73, 3-(3-fluoro-5-((1s,3s)-1-(2-(2-fluoro-5-((6-fluoro-4-(methylsulfonyl)-1H-indol-5-yl)oxy)phenyl)-1H-imidazol-5-yl)-3-methoxy-3-methylcyclobutyl)-phenyl)propanoic acid] | A (A: T ≥ 10° C.) |

Target: T1, CFTR (Homo sapiens, UniProt P13569, DEL508-508)
T1 construct: Primary human bronchial epithelial cells from a ΔF508 homozygous CF donor; host or cells: primary human bronchial epithelial cells (CF-HBE), ΔF508 homozygous donor
Test: TECC24 recording of CFTR-mediated transepithelial chloride transport in ΔF508 homozygous CF-HBE cells
Format: cell-based
Details: 10 μM test agent, 48 hours incubation, AUC of forskolin-stimulated IEQ divided by vehicle AUC, primary CF-HBE cells
Experimental: The effects of a test agent on CFTR-mediated transepithelial chloride transport was measured using TECC24 recording analysis. Test agents were solubilized in DMSO. Solubilized test agents were mixed with incubation medium containing DMEM/F12, Ultroser G (2%; Crescent Chemical, catalog #67042), Hyclone Fetal Clone II (2%; GE Healthcare, catalog #SH30066.02), bovine brain extract (0.25%; Lonza, catalog #CC-4098), insulin (2.5 μg/mL), IL-13 (10 ng/mL), hydrocortisone (20 nM), transferrin (2.5 μg/mL), triiodothyronine (500 nM), ethanolamine (250 nM), epinephrine (1.5 μM), phosphoethanolamine (250 nM), and retinoic acid (10 nM). Primary human bronchial epithelial cells from a ΔF508 homozygous CF donor (CF-HBE cells; from University of North Carolina Cystic Fibrosis Tissue Procurement Center), grown on Transwell HTS 24-well cell culture inserts (Costar, catalog #3378), were exposed to test agents or controls dissolved in incubation medium. The CF-HBE cells were cultured at 36.5° C. for 48 hours before TECC24 recordings were performed in the presence or absence of test agent, a positive control or vehicle (DMSO).
Following incubation, the transwell cell culture inserts containing the test agent or control-treated CF-HBE cells were loaded onto a TECC24 apparatus (TECC v7 or MTECC v2; EP Design) to record the transepithelial voltage (VT) and resistance (TEER) using 4 AgCl electrodes per well configured in current-clamp mode. The apical and basolateral bath solutions both contained (in mM) 140 NaCl, 5 KCl, 2 CaCl2, 1 MgCl2, 10 Hepes, and 10 glucose (adjusted to pH 7.4 with NaOH). To inhibit basal Na+ absorption, the ENaC inhibitor benzamil (10 μM) was added to the bath. Then, the adenylate cyclase activator, forskolin (10 μM), was added to the bath to activate CFTR. The forskolin-stimulated Cl— transport was halted by addition of CFTR inhibitor-172 (20 μM) to the bath at the end of the experiment to confirm specificity. VT and TEER recordings were digitally acquired at routine intervals using TECC or MTECC software (EP Design). VT and TEER were transformed into equivalent transpeithelial Cl— current (IEQ), and the Area Under the Curve (AUC) of the IEQ timecourse between forskolin and CFTR inhibitor-172 addition is generated using Excel (Microsoft). Efficacy is expressed as the ratio of the test agent AUC divided by vehicle AUC. EC50s based on AUC are generated using the non-linear regression log(agonist) vs. response function in Prism software (Graphpad) with HillSlope fixed=1.
If a test agent increased the AUC of the forskolin-stimulated IEQ relative to vehicle in CF-HBE cells, and this increase was inhibited by CFTR inhibitor-172, then the test agent was considered a CFTR corrector.

T1 sequence (P13569 with tags, fused parts or gaps DEL508-508): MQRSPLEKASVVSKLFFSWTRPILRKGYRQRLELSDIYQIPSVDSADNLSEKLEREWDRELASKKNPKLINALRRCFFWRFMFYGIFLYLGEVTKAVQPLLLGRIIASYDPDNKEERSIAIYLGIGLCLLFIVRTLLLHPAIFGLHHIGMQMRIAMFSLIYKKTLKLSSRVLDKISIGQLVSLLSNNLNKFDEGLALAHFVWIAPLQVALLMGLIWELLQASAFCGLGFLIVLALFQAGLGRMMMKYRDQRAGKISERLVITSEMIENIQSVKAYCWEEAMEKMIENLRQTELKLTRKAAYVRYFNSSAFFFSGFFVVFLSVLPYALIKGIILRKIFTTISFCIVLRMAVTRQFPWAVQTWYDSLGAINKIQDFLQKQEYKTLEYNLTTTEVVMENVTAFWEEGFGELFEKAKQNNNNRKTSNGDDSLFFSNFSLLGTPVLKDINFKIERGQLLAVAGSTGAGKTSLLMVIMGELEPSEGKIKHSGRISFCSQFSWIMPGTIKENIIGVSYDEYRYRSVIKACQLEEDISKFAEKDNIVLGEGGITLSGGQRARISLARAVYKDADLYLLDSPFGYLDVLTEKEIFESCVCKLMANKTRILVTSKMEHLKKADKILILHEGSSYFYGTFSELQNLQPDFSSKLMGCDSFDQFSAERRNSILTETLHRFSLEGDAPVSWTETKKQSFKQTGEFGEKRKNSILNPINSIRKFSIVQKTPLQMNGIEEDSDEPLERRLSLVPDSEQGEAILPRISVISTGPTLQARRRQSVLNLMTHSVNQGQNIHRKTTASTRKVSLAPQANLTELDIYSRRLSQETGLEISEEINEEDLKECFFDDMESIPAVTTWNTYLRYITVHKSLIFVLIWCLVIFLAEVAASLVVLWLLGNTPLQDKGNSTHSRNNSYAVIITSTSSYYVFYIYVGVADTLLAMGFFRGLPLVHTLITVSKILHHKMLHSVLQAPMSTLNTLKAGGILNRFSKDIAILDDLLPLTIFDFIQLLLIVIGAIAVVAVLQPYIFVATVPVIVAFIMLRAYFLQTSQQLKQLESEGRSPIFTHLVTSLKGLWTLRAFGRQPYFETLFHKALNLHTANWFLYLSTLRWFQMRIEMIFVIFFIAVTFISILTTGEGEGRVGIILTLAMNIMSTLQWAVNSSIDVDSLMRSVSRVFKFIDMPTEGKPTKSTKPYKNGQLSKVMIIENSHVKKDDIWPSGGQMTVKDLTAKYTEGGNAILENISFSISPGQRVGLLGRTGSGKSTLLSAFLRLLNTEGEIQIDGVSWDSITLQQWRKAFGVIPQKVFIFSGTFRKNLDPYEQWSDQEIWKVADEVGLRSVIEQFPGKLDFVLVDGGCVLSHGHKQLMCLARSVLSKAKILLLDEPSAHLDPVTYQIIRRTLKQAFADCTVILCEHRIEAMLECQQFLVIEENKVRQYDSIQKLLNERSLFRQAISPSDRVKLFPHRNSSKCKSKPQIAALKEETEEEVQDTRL

| SMILES | TECC24 @ 10 μM over DMSO (AUC fold over DMSO) |
| --- | --- |
| CC(O)(c1cccc(CCC(=O)O)c1)c1cnc(-c2cc(Oc3c(F)c(F)c4[nH]ccc4c3C3CC3)ccc2F)[nH]1 (centres unmarked) [Example 205, 3-(3-(1-(2-(5-((4-cyclopropyl-6,7-difluoro-1H-indol-5-yl)oxy)-2-fluorophenyl)-1H-imidazol-5-yl)-1-hydroxyethyl)phenyl) propanoic acid] | B (“B” refers to AUC @10 uM between 4-12) |
